Experimental data taken from patent US8378114B2, “N-2-(hetero)arylethylcarboxamide derivative, and pest-controlling agent comprising the same” (Nihon Nohyaku Co., Ltd., priority 2006, dated 2013).

Tests used:
[1] = tested on: southern root-knot nematode (Meloidogyne incognita); experiment: Test on the controlling efficacy against southern root-knot nematode; format: in vivo; design: key: A: No root knot.; B: Apparently smaller number of root knots than in non-treated section were present.; C: Root knots in the number equivalent to or higher than in non-treated section were present; conditions: melon nursery plant, plant foot irrigation, 500 ppm, 8 days after inoculation
Method: An emulsion prepared by diluting an emulsifiable concentrate of the compound of the present invention, which was prepared in accordance with Formulation Example 1, to 500 ppm was irrigated to the plant foot of a pot-cultivated nursery plant raised from the seed of melon. One day after the irrigation, an aqueous suspension (about 500 nematodes/ml) of southern root-knot nematode was inoculated (soil irrigation) to a treated section and a non-treated section, and the pot was placed in a greenhouse at 25° C. Eight days after the inoculation, the root was washed with water, the number of root knots was counted, and the effect was assessed according to the following criteria of judgment. • Criteria of Judgment • A: No root knot. • B: Apparently smaller number of root knots than in non-treated section were present. • C: Root knots in the number equivalent to or higher than in non-treated section were present.

[2] = tested on: causal fungus of apple tree scab (Venturia inaequalis); experiment: Test on the controlling efficacy against apple tree scab; format: in vivo; conditions: apple seedling, foliar application, 4-fold concentration 200 ppm, 14 days after inoculation
Text: A seedling of an apple tree (the variety: Ohrin) grown in a pot was subjected to foliar application with a diluted emulsion of the emulsifiable concentrate of the compound of the present invention prepared in accordance with Formulation Example 1, which diluted emulsion was produced by diluting the concentrate with water to the specifically determined volume. On the following day after the application, the seedling was inoculated by spraying with a spore suspension of the causal fungus of apple tree scab (Venturia inaequalis) as obtained by culture on the PSA medium and maintained at 20° C. under humid conditions. Fourteen days after the inoculation, the protective value (%) was determined in accordance with the equation (1), and the controlling efficacy was assessed according the below-described criteria of judgment. [formula]

| Compound | effect on number of root knots, criteria of judgment [1] | controlling efficacy, criteria of judgment (protective value) [2] |
| --- | --- | --- |
| O=C(NCCc1ccc(Cl)cc1Cl)c1ccccc1C(F)(F)F [1-16] | B | – |
| O=C(NCC1(c2ccc(Cl)cc2Cl)CC1)c1ccccc1C(F)(F)F [1-34] | B | – |
| O=C(NCC1(c2ccc(Cl)cc2Cl)CC1)c1nccnc1Cl [3′-43] | B | – |
| CC(Cc1ccc(Cl)cc1Cl)NC(=O)c1nccnc1Cl (stereo not drawn) [3′-44] | B | – |
| Cc1nccnc1C(=O)NCCc1ccc(-c2ccc(OC(F)(F)F)cc2)cc1 [3″-48] | B | – |
| O=C(NCCc1cccc(C(F)(F)F)c1)c1c(Cl)cccc1Cl [comparison compound A, 2,6-dichloro-N-[2-{3-(trifluoromethyl)phenyl}ethyl]benzamide] | – | 0 (Less than 9% in protective value) |
